# Experiments:
# griPGHS = biological target: T1, griPGHS (Mus musculus, UniProt Q05769); conditions: E9 cells
# T1 sequence (Q05769 18-604): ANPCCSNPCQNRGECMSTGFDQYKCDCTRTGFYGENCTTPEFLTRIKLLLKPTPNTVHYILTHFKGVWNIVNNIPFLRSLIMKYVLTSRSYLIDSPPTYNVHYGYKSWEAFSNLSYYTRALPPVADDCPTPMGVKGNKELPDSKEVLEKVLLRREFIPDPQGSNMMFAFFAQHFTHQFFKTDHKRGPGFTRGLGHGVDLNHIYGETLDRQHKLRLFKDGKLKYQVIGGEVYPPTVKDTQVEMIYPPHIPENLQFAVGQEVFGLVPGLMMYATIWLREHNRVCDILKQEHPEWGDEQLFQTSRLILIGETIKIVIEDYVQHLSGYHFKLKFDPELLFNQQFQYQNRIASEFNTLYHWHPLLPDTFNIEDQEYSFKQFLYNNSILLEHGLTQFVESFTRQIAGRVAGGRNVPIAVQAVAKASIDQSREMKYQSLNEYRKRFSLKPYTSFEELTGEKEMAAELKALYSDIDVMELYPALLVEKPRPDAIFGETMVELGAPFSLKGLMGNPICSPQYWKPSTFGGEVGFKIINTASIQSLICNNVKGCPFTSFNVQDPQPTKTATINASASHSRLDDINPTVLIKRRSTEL
# Experimental: (§1) Cyclooxygenase activity was determined in the cultures by addition of media containing exogenous arachidonic acid substrate (30 AM for 15 min. at 37° C.) followed by conversion of the prostaglandin E2 product to a methyl oximate form. This derivative was then quantitated by radioimmunoassay (kit from Amersham Corp.).
# Prostaglandin assays were carried out as described above. For drug studies, cells were exposed to various concentrations of drugs for 30 min in serum-free DMEM and arachidonic acid was added directly from a 25×stock in DMEM. Supernatants were harvested 15 min later. Controls consisted of no drugs and wells treated with maximal concentrations of drug vehicles (1% methanol or ethanol).
# Cells were placed in serum-free medium with the drugs for 30 min prior to a 15 min exposure to arachidonic acid (added directly to the media). Synthesized PGE2 was then quantitated from the supernatants by a standard radio immunoassay.
# colon tumor = conditions: several clinical trials; cited from earlier work
# human PGHS-2 = biological target: T2, human PGHS-2 (Homo sapiens, UniProt P35354); conditions: cell lines incl. H17A5 (PGHS-1) and 4B4 (PGHS-2), 30 min drug, 15 min arachidonic acid
# T2 sequence (P35354 18-604): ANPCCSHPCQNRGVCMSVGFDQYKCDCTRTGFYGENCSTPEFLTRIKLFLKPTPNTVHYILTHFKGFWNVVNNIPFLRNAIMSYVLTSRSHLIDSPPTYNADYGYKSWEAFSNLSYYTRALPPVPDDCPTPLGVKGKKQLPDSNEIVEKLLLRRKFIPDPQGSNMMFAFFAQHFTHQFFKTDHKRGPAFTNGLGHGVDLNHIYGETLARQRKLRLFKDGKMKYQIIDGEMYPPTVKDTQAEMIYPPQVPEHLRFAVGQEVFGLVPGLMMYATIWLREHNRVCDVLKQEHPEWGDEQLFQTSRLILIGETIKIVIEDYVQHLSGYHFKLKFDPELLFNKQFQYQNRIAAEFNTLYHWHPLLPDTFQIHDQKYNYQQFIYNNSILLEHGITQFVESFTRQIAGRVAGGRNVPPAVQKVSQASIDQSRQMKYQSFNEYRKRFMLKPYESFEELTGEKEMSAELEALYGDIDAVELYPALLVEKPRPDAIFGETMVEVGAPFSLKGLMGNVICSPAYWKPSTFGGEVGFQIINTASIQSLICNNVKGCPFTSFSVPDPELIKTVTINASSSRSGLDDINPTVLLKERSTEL
# Experimental: PGHS-1 and PGHS-2 cell lines (including 4B4 and H17A5) were exposed to various concentrations of NSAID for 30 min in serum-free DMEM. Arachidonic acid was added directly from a 25×stock in DMEM and supernatants were harvested 15 min later. Controls consisted of no drug treatment and cells treated with the maximal concentrations of drug vehicles (1% methanol or ethanol). […] Cyclooxygenase activity was determined as described herein above.
# 2.8-kb PGHS mRNA = experiment: Northern blot of 2.8-kb PGHS (PGHS-1) mRNA in human monocytes; format: cell-based; conditions: IL-1β, dexamethasone or cycloheximide treatment
# Experimental: (§2) Poly-A enriched RNAs (2.5 μg) from C127 cells were fractionated by formaldehyde-agarose gel electrophoresis and transferred to a membrane (Duralon, Stratagene). Hybridization was carried out as previously described by O'Banion et al., 1991, J. Virol., 65:3481-3488, using the 5′ 1.2 kb EcoRI fragment of the 4.1 kb cDNA labeled with ^32P by random priming as disclosed by Feinberg et al., 1983, Anal. Biochem., 132:6-13. The membrane was later rehybridized with a similarly labeled portion (1.6 kb 5′ end) of the 2.8 kb ovine PGHS cDNA (Oxford Biomedical Research, Inc.), and an end-labeled 40-mer complimentary to β-tubulin (Oncor). RNA molecular weight markers (Life Technologies) were visualized by ethidium bromide staining. A similar analysis was performed on total RNA (5 μg/lane) isolated from human monocytes by the guanidinium-acid-phenol extraction method of Chomczynski et al., 1987, Anal. Biochem., 162:156-159.
# Adherent human monocytes isolated from healthy donors as described by Roberts et al., 1978, J. Immunol, 121:1052-1058, were suspended in M199 medium without serum at 1×10^6 cells/ml. one ml aliquots in 5 ml polypropylene tubes were incubated with loosened caps in 5% CO2 at 37° C. with occasional shaking. […]
# [1] = test system: griPGHS mRNA (4.8-kb mRNA); experiment: Northern blot of griPGHS (PGHS-2) mRNA in human monocytes; format: cell-based; conditions: for increased levels of griPGHS mRNA relative to control: IL-1β 10 half-maximal units
# Experimental: as §2
# (§3) Adherent human monocytes isolated from healthy donors as described by Roberts et al., 1978, J. Immunol, 121:1052-1058, were suspended in M199 medium without serum at 1×10^6 cells/ml. one ml aliquots in 5 ml polypropylene tubes were incubated with loosened caps in 5% CO2 at 37° C. with occasional shaking. To derive the autoradiograph shown in FIG. 3A, monocytes were incubated for 4 hr in the presence or absence of dexamethasone (1 AM; Sigma) prior to total RNA isolation by the procedure of P. Chomczynski et al., cited above. Five μg RNA was subjected to Northern blot analysis as described by O'Banion et al., 1991, J. Biol. Chem., 34:23261-23267 with the indicated probes labeled by random priming (kit from Boehringer-Mannheim) to a specific activity >1×10^9 cpm/μg. To derive the autoradiograph shown in FIG. 3B, monocytes were treated with dexamethasone (1 μM), […] (10 half-maximal units, Collaborative Research), or both for the indicated times prior to RNA isolation. Cycloheximide (25 μM; Sigma) was added to one set of incubations 15 min prior to the addition of cytokine or hormone.
# C127 mouse fibroblasts = experiment: Inhibition of protein synthesis in C127 cell cultures; format: cell-based; conditions: C127, 0.25 h, within 15 min
# Experimental: Exponentially growing, subconfluent (60-80%) cell monolayers (35-mm plates) were labeled in Dulbecco's modified Eagle's medium without methionine (Life Technologies) plus 200 μCi/ml Tran^35S-label (>1,000 Ci/mmol; ICN) for 15 or 30 min. In some cases, fresh fetal calf serum (10%) was present during the labeling period. Monolayers were rinsed twice with ice-cold Dulbecco's modified Eagle's medium (DMEM) with methionine prior to lysis in 200 μl of A8 buffer (9.5 M urea, 2% (w/v) Nonidet P-40, 2% (w/v) ampholines (LKB, 1.6% pH range 5-8, 04.% pH range 3.5-10), 5% (w/v) 2-mercaptoethanol). Incorporation of label into proteins was determined by trichloroacetic acid precipitation. Dexamethasone (Sigma) was freshly prepared in phosphate-buffered saline (PBS) (stock concentrations based on molar extinction coefficient of 1.5×10^4 liters/mol/cm at 250 nn) and added to 1 μM. The calcium ionophore A23187 (Calbiochem) was used at a concentration of 5 μM from a 2.5 mM stock in ethanol. Cycloheximide (Sigma) was used at a concentration of 25 μM from a 100× stock in water. This level inhibited protein synthesis by >97% within 15 min. Control cultures received appropriate amounts of solvents.
# colon polyp = conditions: patients with familial polyposis; cited from earlier work
# [2] = test system: lung disease of cystic fibrosis; conditions: high-dose, cystic fibrosis patient population; cited from earlier work
# PGHS-2 = conditions: cytokine-treated astrocytes; cited from earlier work
# human monocytes = experiment: Accumulated PGE2 in supernatant of human monocytes; format: cell-based; conditions: after 4 hr of incubation, dexamethasone 1 μM; without 122.5
# Experimental: as §1
# as §3, with “Cycloheximide (25 μM; Sigma) was added to one set of incubations 15 min prior to the addition of cytokine or hormone.” left out
compound,measurement,setting,value
CC(=O)Nc1ccc(O)cc1 [acetaminophen],potency against griPGHS activity (rank among four NSAIDs),"griPGHS; 0.2 μM-2 mM, 30 min drug then 15 min arachidonic acid",the least
same,concentration not sufficient for full inhibition of griPGHS activity,griPGHS; highest dose tested,> 2 mM
CC(=O)Oc1ccccc1C(=O)O [aspirin],association of use with colon tumor outcome,colon tumor,decreased colon tumor growth and death
same,"levels of drug required for inhibition, cells expressing PGHS-1 versus PGHS-2",human PGHS-2,different
C[C@@H]1C[C@@H]([C@H](O)CC2CC(=O)NC(=O)C2)C(=O)[C@@H](C)C1 [cycloheximide],levels of the 2.8-kb mRNA relative to β-tubulin,2.8-kb PGHS mRNA,not significantly altered
same,effect on 4.8-kb griPGHS mRNA,[1]; cycloheximide 25 μM added 15 min before cytokine or hormone,superinduction
same,inhibition at 25 µM,C127 mouse fibroblasts,> 97%
CC1=C(CC(=O)O)c2cc(F)ccc2/C1=C\c1ccc([S+](C)[O-])cc1 (stereo not drawn) [Sulindac],effect on colon polyps,colon polyp,colon polyp regression
CC(C)Cc1ccc(C(C)C(=O)O)cc1 (stereo not drawn) [ibuprofen],effect on lung disease,[2],slows the progression of lung disease
"IL-1β: proinflammatory cytokine, known mediator of inflammation (Collaborative Research)",levels of the 2.8-kb mRNA relative to β-tubulin,2.8-kb PGHS mRNA,not significantly altered
same,increased levels of griPGHS mRNA relative to control,"[1]; 4 hr, human monocytes",2.5 fold
same,increased levels of griPGHS mRNA relative to control,"[1]; 12 hr, human monocytes",14 fold
CS(=O)(=O)Nc1ccc([N+](=O)[O-])cc1OC1CCCCC1 [NS-398],induced cyclooxygenase activity,PGHS-2,blocked
C[C@@H]1C[C@H]2[C@@H]3CCC4=CC(=O)C=C[C@]4(C)[C@@]3(F)[C@@H](O)C[C@]2(C)[C@@]1(O)C(=O)CO [dexamethasone],level of accumulated PGE2 in the supernatant,human monocytes,52.5 pg per 10^4 monocytes
same,"griPGHS mRNA levels down-regulated, normalized to β-tubulin","[1]; dexamethasone 1 μM, 4 hr, human monocytes",5 fold

# — patent publication US20040014702A1, “Mammalian prostaglandin H synthase-2” (priority 1992, published 2004)
